Source: US12624044B2, “SMARCA degraders and uses thereof” (Kymera Therapeutics, Inc., priority 2019, dated 2026)

How the values were obtained:
Assay type in all cases: cell-based
[1] = molecular target: T1, SMARCA2 (Homo sapiens, UniProt P51531); assay: MSD SMARCA2 degradation in A549 cell line; settings: for SMARCA2 MSD A549 degradation 24 h: Average Dmax % / DC50: A549 cells; for DC50 / Dmax: 24 h; for DC50: read-out: SMARCA2 MSD A549 degradation 24 h: Average external-Abs DC50; for Dmax: A549, A549 cells
Summary of the method: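 A549 cells treated 24 h with compound at final 0.152-1000 nM (3-fold series, DMSO control). Lysates analyzed by MSD immunoassay using anti-SMARCA2/BRM detection and SULFO-TAG secondary antibodies; maximal degradation (Dmax %) reported as letter bins.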

[2] = molecular target: T1, SMARCA2; assay: SMARCA2 Western blot MV4-11 degradation; settings: for SMARCA2 WB MV411 degradation 24 h: Average Dmax % / DC50: MV4-11 cells; for DC50 / Dmax: 24 h; for DC50: read-out: SMARCA2 WB MV411 degradation 24 h: Average external-Abs DC50; for Dmax: MV4-11, MV4-11 cells, read-out: SMARCA2 WB MV411 degradation 24 h: Average Dmax %
Protocol: Cells were seeded into 6-well plates (MV4-11: 4×10^6 cells/well/1 ml) and 1 ml of 2× compound solution was added into the well to make the final concentration and the plates were mixed well and incubated for 24 hours (No cytotoxicity was observed). The cell were collected with media and spun at 3000 rpm for 5 minutes. The supernatant was aspirated and the well and the cells were washed with cold PBS once and combined for centrifugation again; the supernatant aspirated again. 200 ul pre-chilled RIPAlysis buffer (Boston BioProducts BP-115D) with protease/phosphatase inhibitor (Roche 05892791001/Roche 04906837001) was directly added into the tube to lyze the cells for 20 minutes on ice. The cell lysate were collected into EP tubes and spun at 13000 rpm for 20 minutes and 72 ul supernatant was transferred to a fresh EP tube containing 18 ul of 5× loading buffer (Beyotime Bio P0015) to make the loading samples. The samples were heated to 100° C. for 10 minutes and cooled to RT and microcentrifuged. 20 ul of samples were loaded onto SDS-PAGE gel (Novex, WG1402BOX) and the gel was run at 80 V for 20 minutes and 120 V for 1.5 hours. The samples were electrotransfer to a NC membrane using wet-transfer method with 250 mA for 2.5 hours. The membrane was blocked with LICOR blocking buffer (LI-COR, 927-50000) for 1 hour. The membrane was washed three times with TBST (CST #9997S), 5 minutes each. Incubation was performed with primary antibody prepared in blocking buffer with 0.1% Tween-20 (Solarbio, P8220) at 4° C. overnight (Anti-SMARCA2/BRM antibody (ab15597) 1:500; Anti-BRG1 antibody [EPR3912] (ab108318) 1:1000; Rabbit anti-Baf180 antibody [EPR15860] (Abcam, ab196022) 1:1000; mouse anti-beta-Actin (8H10D10) (CST #3700) 1:10000). The membrane was washed three times with TBST, 5 minutes each. Incubation with secondary antibody was performed for 1 hour at RT (anti-rabbit IgG (Licor, 926-32211) 1:5000; anti-mouse IgG (LI-COR, 926-68070) 1:5000). The membrane was washed three times with TBST, 5 minutes each and lastly the LiCOR was read.
The letter codes for the percentage of SMARCA degradation after 24 hours (Dmax %) include: A (>90% degradation), B (>70-90% degradation), C (50-70% degradation), and D (<50% degradation).

[3] = molecular target: T2, SMARCA4 (Homo sapiens, UniProt P51532); assay: SMARCA4 Western blot MV4-11 degradation; settings: for SMARCA4 WB MV411 degradation 24 h: Average Dmax % / DC50: MV4-11 cells; for DC50 / Dmax: 24 h; for DC50: read-out: SMARCA4 WB MV411 degradation 24 h: Average external-Abs DC50; for Dmax: MV4-11, MV4-11 cells, read-out: SMARCA4 WB MV411 degradation 24 h: Average Dmax %
T2 construct: SMARCA2 and SMARCA4 protein degradation in MV4-11 cells; endogenous in cells; host or cells: MV4-11
Summary of the method: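 MV4-11 cells treated with compound for 24 h, lysed in RIPA with protease/phosphatase inhibitors, and SMARCA2 and SMARCA4 (BRG1) levels assessed by Western blot with β-actin loading control and LI-COR fluorescent read-out. Maximal degradation (Dmax %) after 24 h binned into letter codes.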

T1 sequence (P51531 whole entry): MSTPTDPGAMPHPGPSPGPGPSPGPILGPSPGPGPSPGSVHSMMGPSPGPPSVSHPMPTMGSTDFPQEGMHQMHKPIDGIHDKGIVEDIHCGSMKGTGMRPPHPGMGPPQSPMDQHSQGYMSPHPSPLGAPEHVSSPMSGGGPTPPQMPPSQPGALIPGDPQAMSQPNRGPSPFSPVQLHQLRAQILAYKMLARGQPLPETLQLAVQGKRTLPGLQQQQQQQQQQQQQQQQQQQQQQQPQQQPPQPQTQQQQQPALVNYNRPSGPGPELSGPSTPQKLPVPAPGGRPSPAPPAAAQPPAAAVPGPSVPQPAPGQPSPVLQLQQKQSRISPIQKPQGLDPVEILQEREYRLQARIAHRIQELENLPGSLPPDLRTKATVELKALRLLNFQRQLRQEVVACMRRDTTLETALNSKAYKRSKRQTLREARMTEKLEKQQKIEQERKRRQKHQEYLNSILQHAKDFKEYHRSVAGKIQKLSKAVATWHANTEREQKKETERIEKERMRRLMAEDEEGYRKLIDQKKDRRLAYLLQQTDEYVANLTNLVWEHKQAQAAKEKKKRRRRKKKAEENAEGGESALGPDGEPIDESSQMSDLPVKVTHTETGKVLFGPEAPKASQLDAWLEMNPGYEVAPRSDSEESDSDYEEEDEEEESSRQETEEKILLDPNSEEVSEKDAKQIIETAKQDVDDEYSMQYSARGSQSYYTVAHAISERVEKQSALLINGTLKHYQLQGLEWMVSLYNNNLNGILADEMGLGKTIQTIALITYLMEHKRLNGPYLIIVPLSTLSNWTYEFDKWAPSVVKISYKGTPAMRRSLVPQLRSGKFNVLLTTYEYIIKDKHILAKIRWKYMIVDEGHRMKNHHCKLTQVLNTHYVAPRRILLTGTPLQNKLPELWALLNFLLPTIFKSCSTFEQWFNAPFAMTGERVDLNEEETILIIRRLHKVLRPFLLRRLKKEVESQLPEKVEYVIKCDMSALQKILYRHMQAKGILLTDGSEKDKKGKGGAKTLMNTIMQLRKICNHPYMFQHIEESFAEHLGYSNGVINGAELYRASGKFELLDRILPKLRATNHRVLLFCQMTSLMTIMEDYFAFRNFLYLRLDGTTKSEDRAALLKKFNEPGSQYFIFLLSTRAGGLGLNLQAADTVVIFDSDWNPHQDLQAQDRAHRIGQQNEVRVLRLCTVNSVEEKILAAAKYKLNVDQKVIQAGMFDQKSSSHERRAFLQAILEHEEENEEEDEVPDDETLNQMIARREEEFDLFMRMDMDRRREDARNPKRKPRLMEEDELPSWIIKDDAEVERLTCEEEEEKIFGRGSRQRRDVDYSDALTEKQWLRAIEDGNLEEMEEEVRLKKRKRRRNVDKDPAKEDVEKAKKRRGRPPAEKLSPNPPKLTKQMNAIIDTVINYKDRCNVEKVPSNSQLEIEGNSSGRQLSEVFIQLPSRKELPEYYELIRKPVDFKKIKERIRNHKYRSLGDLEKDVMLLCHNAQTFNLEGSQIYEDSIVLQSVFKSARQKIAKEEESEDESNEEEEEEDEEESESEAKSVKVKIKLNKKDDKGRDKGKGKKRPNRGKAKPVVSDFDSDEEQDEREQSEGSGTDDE
T2 sequence (P51532 whole entry): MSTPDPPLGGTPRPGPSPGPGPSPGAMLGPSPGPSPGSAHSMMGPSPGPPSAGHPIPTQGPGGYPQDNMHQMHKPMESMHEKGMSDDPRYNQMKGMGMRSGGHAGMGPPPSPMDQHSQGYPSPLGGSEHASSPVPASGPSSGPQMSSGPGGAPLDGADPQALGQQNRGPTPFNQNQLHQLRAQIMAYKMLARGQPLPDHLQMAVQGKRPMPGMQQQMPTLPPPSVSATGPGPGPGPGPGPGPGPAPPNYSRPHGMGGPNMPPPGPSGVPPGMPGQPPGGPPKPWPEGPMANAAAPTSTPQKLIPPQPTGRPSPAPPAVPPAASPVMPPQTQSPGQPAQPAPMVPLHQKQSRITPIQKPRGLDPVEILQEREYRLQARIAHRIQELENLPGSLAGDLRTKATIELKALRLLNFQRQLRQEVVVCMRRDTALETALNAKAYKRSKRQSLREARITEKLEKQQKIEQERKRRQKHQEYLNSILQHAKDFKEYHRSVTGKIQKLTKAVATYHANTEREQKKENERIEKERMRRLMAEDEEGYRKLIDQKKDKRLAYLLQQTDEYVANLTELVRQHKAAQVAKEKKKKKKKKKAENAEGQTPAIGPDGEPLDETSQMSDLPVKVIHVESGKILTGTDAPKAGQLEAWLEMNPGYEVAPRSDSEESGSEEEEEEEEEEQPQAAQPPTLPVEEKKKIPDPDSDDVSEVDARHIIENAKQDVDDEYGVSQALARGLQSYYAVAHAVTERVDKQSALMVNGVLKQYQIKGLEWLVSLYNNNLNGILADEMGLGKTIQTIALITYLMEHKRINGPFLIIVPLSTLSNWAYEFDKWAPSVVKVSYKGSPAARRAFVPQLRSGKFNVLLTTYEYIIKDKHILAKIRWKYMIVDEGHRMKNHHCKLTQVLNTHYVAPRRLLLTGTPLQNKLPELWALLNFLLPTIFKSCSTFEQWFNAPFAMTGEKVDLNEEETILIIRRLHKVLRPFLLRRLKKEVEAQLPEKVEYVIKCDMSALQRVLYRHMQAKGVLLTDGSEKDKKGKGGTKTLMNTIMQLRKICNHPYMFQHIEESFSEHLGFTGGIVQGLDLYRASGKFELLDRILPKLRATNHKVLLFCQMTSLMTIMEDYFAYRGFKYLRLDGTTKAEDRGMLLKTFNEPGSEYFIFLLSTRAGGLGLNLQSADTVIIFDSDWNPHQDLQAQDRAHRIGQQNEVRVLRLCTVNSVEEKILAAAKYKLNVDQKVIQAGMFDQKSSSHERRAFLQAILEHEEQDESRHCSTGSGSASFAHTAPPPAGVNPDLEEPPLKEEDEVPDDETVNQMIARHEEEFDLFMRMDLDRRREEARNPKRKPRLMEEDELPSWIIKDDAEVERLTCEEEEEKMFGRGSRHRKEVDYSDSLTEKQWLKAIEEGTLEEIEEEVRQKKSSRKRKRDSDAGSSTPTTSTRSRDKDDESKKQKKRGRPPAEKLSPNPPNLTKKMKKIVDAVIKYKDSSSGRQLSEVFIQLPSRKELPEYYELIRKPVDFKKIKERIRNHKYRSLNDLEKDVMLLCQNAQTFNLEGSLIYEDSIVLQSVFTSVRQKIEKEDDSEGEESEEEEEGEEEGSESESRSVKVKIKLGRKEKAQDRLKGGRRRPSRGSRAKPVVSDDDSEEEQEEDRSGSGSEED

Row | SMARCA4 WB MV411 degradation 24 h: Average Dmax % [3] | SMILES | SMARCA2 MSD A549 degradation 24 h: Average Dmax % [1] | DC50 [1] [nM] | SMARCA2 WB MV411 degradation 24 h: Average Dmax % [2] | DC50 [2] [nM] | DC50 [3] [nM] | Dmax [1] [%] | Dmax [3] [%] | Dmax [2] [%]
1 | A (A (>90% degradation)) | Cc1ncsc1-c1ccc(CNC(=O)[C@@H]2C[C@@H](O)CN2C(=O)[C@@H](NC(=O)[C@H]2C[C@@]3(C2)C[C@H](c2ccc(CN4CCC(Cn5cc(-c6cc(-c7ccccc7O)nnc6N)cn5)CC4)cc2)C3)C(C)(C)C)cc1 (some centres unmarked) [I-434] | A (A (>90% degradation)) | < 100 | A (A (>90% degradation)) | < 100 | < 100 |  |  | 
2 |  | Cn1c(=O)n(C2CCC(=O)NC2=O)c2ccc([C@H]3CC[C@H](N4CCC(c5cnc(N6C7CCC6CN(c6cc(-c8ccccc8O)nnc6N)C7)nc5)CC4)CC3)cc21 (some centres unmarked) [I-291] |  | < 100 |  | < 100 | < 100 | > 90 | > 90 | 
3 |  | Cc1ncsc1-c1ccc(CNC(=O)[C@@H]2C[C@@H](O)CN2C(=O)[C@@H](NC(=O)[C@H]2CC[C@H](CN(C)Cc3cnc(N4C5CCC4CN(c4cc(-c6ccccc6O)nnc4N)C5)nc3)CC2)C(C)(C)C)cc1 [I-486] |  | 100 to 500 |  | < 100 | 100 to 500 | > 90 | 50 to 70 | > 90
4 |  | Cc1ncsc1-c1ccc(CNC(=O)[C@@H]2C[C@@H](O)CN2C(=O)[C@@H](NC(=O)[C@H]2CC[C@H](CCN3CCC(n4cc(-c5cc(-c6ccccc6O)nnc5N)cn4)CC3)CC2)C(C)(C)C)cc1 [I-399] |  | < 100 |  | < 100 | 100 to 500 | > 90 | 50 to 70 | > 90
5 |  | Cc1ncsc1-c1ccc(CNC(=O)[C@@H]2C[C@@H](O)CN2C(=O)[C@@H](NC(=O)C2CCC(c3cnc(N4C5CCC4CN(c4cc(-c6ccccc6O)nnc4N)C5)nc3)CC2C)C(C)(C)C)cc1 (some centres unmarked) [I-444] |  | 501 to 1000 |  | < 100 | < 100 |  |  | 
6 |  | Cc1ncsc1-c1ccc(CNC(=O)[C@@H]2C[C@@H](O)CN2C(=O)[C@@H](NC(=O)[C@H]2CC[C@H](Cc3cnc(N4C5CCC4CN(c4cc(-c6ccccc6O)nnc4N)C5)nc3)CC2)C(C)(C)C)cc1 [I-366, (2S,4R)-1-((2S)-2-((1r,4S)-4-((2-(3-(3-amino-6-(2-hydroxyphenyl)pyridazin-4-yl)-3,8-diazabicyclo[3.2.1]octan-8-yl)pyrimidin-5-yl)methyl)cyclohexane-1-carboxamido)-3,3-dimethylbutanoyl)-4-hydroxy-N-(4-(4-methylthiazol-5-yl)benzyl) pyrrolidine-2-carboxamide] |  | < 100 |  | < 100 | < 100 | > 90 | > 90 | > 90
7 |  | Cc1ncsc1-c1ccc(CNC(=O)[C@@H]2C[C@@H](O)CN2C(=O)[C@@H](NC(=O)[C@H]2C[C@@H](N3CCC(c4cnc(N5C6CCC5CN(c5cc(-c7ccccc7O)nnc5N)C6)nc4)CC3)C2)C(C)(C)C)cc1 [I-349] |  | 100 to 500 |  | < 100 | 501 to 1000 | > 90 | < 50 | 70 to 90
8 |  | Cc1ncsc1-c1ccc(CNC(=O)[C@@H]2C[C@@H](O)CN2C(=O)[C@@H](NC(=O)C2CCC(c3cnc(N4C5CCC4CN(c4cc(-c6ccccc6O)nnc4N)C5)nc3)CC2)C(C)(C)C)cc1 (some centres unmarked) [I-503] |  | < 100 |  | < 100 | < 100 | > 90 | > 90 | > 90
9 | C (C (50-70% degradation)) | Cc1ncsc1-c1ccc(CNC(=O)[C@@H]2C[C@@H](O)CN2C(=O)[C@@H](NC(=O)[C@H]2CC3(C2)C[C@H](c2ccc(CN4CCC(Cn5cc(-c6cc(-c7ccccc7O)nnc6N)cn5)CC4)cc2)C3)C(C)(C)C)cc1 (some centres unmarked) [I-433] |  | < 100 |  | < 100 | < 100 | > 90 |  | > 90
10 |  | Cc1ncsc1-c1ccc(CNC(=O)[C@@H]2C[C@@H](O)CN2C(=O)[C@@H](NC(=O)C2CCC(CN3CCC(n4cc(-c5cc(-c6ccccc6O)nnc5N)cn4)CC3)CC2)C(C)(C)C)cc1 (some centres unmarked) [I-327] |  | 100 to 500 |  | < 100 | > 1000 | > 90 | < 50 | > 90
11 |  | Cc1ncsc1-c1ccc(CNC(=O)[C@@H]2C[C@@H](O)CN2C(=O)[C@@H](NC(=O)[C@H]2CC[C@H](CCCN3CCC(n4cc(-c5cc(-c6ccccc6O)nnc5N)cn4)CC3)CC2)C(C)(C)C)cc1 [I-401] |  | 100 to 500 |  | < 100 | 100 to 500 | > 90 | 70 to 90 | > 90
12 |  | Cc1ncsc1-c1ccc(CNC(=O)[C@@H]2C[C@@H](O)CN2C(=O)[C@@H](NC(=O)CN2CCN([C@H]3CC[C@H](c4cnc(N5C6CCC5CN(c5cc(-c7ccccc7O)nnc5N)C6)nc4)CC3)CC2)C(C)(C)C)cc1 (single isomer, unassigned) [I-446, (2S,4R)-1-((2S)-2-(2-(4-((1r,4S)-4-(2-(3-(3-amino-6-(2-hydroxyphenyl)pyridazin-4-yl)-3,8-diazabicyclo[3.2.1]octan-8-yl)pyrimidin-5-yl)cyclohexyl)piperazin-1-yl)acetamido)-3,3-dimethylbutanoyl)-4-hydroxy-N-(4-(4-methylthiazol-5-yl)benzyl)pyrrolidine-2-carboxamide] |  |  |  |  |  | > 90 | > 90 | > 90
13 |  | Cc1ncsc1-c1ccc(C2(NC(=O)[C@@H]3C[C@@H](O)CN3C(=O)[C@@H](NC(=O)[C@H]3CC[C@H](c4cnc(N5C6CCC5CN(c5cc(-c7ccccc7O)nnc5N)C6)nc4)CC3)C(C)(C)C)CC2)cc1 [I-439] |  | < 100 |  | < 100 | < 100 | > 90 | > 90 | > 90
14 |  | Cc1ncsc1-c1ccc(CNC(=O)[C@@H]2C[C@@H](O)CN2C(=O)[C@@H](NC(=O)c2ccc(N3CC(n4cc(-c5cc(-c6ccccc6O)nnc5N)cn4)C3)cc2)C(C)(C)C)cc1 [I-514] |  | 100 to 500 |  | < 100 | < 100 | > 90 | > 90 | > 90
15 |  | Cc1ncsc1-c1ccc(CNC(=O)[C@@H]2C[C@@H](O)CN2C(=O)[C@@H](NC(=O)[C@H]2CC3(C2)C[C@H](c2cnc(N4C5CCC4CN(c4cc(-c6ccccc6O)nnc4N)C5)nc2)C3)C(C)(C)C)c(C(F)(F)F)c1 (some centres unmarked) [I-419] |  | 100 to 500 |  | < 100 | 100 to 500 | > 90 | 70 to 90 | > 90
16 |  | Cc1ncsc1-c1ccc(CNC(=O)[C@@H]2C[C@@H](O)CN2C(=O)[C@@H](NC(=O)[C@H]2CC[C@H](c3cnc(N4C5CCC4CN(c4cc(-c6ccccc6O)nnc4N)C5)nc3)CC2)C(C)(C)C)c(C(F)(F)F)c1 [I-404] |  | 100 to 500 |  | < 100 | 100 to 500 | > 90 | 70 to 90 | > 90
17 |  | Cc1ncsc1-c1ccc(CNC(=O)[C@@H]2C[C@@H](O)CN2C(=O)[C@@H](NC(=O)C2CC(N3CCC(n4cc(-c5cc(-c6ccccc6O)nnc5N)cn4)CC3)C2)C(C)(C)C)cc1 (some centres unmarked) [I-484] |  | 100 to 500 |  | < 100 | 100 to 500 | 70 to 90 | 70 to 90 | > 90

Row | SMILES | SMARCA4 WB MV411 degradation 24 h: Average Dmax % [3] | SMARCA2 MSD A549 degradation 24 h: Average Dmax % [1] | DC50 [1] [nM] | SMARCA2 WB MV411 degradation 24 h: Average Dmax % [2] | DC50 [2] [nM] | DC50 [3] [nM] | Dmax [1] [%] | Dmax [3] [%] | Dmax [2] [%]
18 | Cc1ncsc1-c1ccc(CNC(=O)[C@@H]2C[C@@H](O)CN2C(=O)[C@@H](NC(=O)[C@H]2CC3(C2)C[C@H](N2CCC(c4cnc(N5C6CCC5CN(c5cc(-c7ccccc7O)nnc5N)C6)nc4)CC2)C3)C(C)(C)C)cc1 (some centres unmarked) [I-424] | D (D (<50% degradation)) | A (A (>90% degradation)) | < 100 | A (A (>90% degradation)) | < 100 | > 1000 |  |  | 
